# Where two headings read alike, the source gives them in different places.
# Columns and labels:
# human O-GlcNAcase = human O-GlcNAcase (Homo sapiens (Human), UniProt O60502); assay: biochemical; format: biochemical; conditions: for Ki: read-out: OGA KI
# [1] = target: O-GlcNAcase in rat PC-12 cells (Rattus norvegicus (Rat), UniProt Q8VIJ5); assay: cell-based
# Description: Assay for Determination of Cellular Activity for Compounds that Inhibit O-GlcNAcase Activity
# Inhibition of O-GlcNAcase, which removes O-GlcNAc from cellular proteins, results in an increase in the level of O-GlcNAcylated protein in cells. An increase in O-GlcNAcylated protein can be measured by an antibody, such as RL-2, that binds to O-GlcNAcylated protein. The amount of O-GlcNAcylated protein:RL2 antibody interaction can be measured by enzyme linked immunosorbant assay (ELISA) procedures.
# A variety of tissue culture cell lines, expressing endogenous levels of O-GlcNAcase, can be utilized; examples include rat PC-12, and human U-87, or SK-N-SH cells. In this assay, rat PC-12 cells were plated in 96-well plates with approximately 10,000 cells/well. Compounds to be tested were dissolved in DMSO, either 2 or 10 mM stock solution, and then diluted with DMSO and water in a two-step process using a Tecan workstation. […] To prepare a cell lysate, the media from compound treated cells was removed, the cells were washed once with phosphate buffered saline (PBS) and then lysed for 5 minutes at room temperature in 50 μL of Phosphosafe reagent (Novagen Inc, Madison, Wis.) with protease inhibitors and PMSF. The cell lysate was collected and transferred to a new plate, which was then either coated to assay plates directly or frozen −80° C. until used in the ELISA procedure. If desired, the total protein concentration of samples is determined using 20 μL of the sample using the BCA method.
# The plate was sealed and incubated at 37° C. for 2 hr with gentle shaking. The wells were then washed 3-times with 300 μl/well wash buffer. […] The plate was incubated for 60 min at 37° C. with gentle shaking. Each well was then washed 3-times with 300 μl/well wash buffer. The detection reagent was added, 100 μL/well of Amplex Ultra RED reagent (prepared by adding 30 μL of 10 mM Amplex Ultra Red stock solution to 10 ml PBS with 18 μL 3% hydrogen peroxide, H2O2). The detection reaction was incubated for 15 minutes at room temperature and then read with excitation at 530 nm and emission at 590 nm.
# [2] = Assay for determination of apparent permeability (Papp), bi-directional transport; conditions: pig, LLC-PK1
# [3] = purified human O-GlcNAcase 0.7 nM, pH 7.0, room temperature, Cheng-Prusoff
# [4] = rat PC-12 cells, 24 hours treatment, increase in O-GlcNAcylated protein, read-out: Cell based ELISA EC50
# Chain of O-GlcNAcase in rat PC-12 cells (Q8VIJ5 whole entry): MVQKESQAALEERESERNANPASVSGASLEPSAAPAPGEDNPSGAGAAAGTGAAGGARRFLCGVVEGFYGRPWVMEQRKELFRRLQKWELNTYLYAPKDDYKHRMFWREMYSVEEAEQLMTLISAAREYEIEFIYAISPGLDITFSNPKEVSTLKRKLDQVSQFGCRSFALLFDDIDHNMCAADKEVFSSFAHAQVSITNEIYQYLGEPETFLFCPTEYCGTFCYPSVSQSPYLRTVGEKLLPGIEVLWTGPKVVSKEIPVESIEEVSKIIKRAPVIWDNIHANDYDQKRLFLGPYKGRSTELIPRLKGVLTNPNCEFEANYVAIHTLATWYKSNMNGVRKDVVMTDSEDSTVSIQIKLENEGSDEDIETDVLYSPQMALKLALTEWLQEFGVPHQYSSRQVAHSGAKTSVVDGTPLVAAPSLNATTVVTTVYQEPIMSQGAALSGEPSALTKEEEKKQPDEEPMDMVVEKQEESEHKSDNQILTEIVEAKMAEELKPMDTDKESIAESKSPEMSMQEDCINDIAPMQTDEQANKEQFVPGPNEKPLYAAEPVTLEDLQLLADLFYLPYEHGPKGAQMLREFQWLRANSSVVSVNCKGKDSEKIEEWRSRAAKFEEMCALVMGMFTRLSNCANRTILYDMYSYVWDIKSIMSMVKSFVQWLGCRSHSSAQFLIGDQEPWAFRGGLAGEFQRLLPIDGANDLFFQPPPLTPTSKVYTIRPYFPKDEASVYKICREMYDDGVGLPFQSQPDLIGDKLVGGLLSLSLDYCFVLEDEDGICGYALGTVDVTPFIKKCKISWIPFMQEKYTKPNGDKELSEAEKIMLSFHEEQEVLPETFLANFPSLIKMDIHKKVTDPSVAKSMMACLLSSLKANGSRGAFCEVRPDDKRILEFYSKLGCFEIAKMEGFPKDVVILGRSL
# Chain of human O-GlcNAcase (O60502 whole entry): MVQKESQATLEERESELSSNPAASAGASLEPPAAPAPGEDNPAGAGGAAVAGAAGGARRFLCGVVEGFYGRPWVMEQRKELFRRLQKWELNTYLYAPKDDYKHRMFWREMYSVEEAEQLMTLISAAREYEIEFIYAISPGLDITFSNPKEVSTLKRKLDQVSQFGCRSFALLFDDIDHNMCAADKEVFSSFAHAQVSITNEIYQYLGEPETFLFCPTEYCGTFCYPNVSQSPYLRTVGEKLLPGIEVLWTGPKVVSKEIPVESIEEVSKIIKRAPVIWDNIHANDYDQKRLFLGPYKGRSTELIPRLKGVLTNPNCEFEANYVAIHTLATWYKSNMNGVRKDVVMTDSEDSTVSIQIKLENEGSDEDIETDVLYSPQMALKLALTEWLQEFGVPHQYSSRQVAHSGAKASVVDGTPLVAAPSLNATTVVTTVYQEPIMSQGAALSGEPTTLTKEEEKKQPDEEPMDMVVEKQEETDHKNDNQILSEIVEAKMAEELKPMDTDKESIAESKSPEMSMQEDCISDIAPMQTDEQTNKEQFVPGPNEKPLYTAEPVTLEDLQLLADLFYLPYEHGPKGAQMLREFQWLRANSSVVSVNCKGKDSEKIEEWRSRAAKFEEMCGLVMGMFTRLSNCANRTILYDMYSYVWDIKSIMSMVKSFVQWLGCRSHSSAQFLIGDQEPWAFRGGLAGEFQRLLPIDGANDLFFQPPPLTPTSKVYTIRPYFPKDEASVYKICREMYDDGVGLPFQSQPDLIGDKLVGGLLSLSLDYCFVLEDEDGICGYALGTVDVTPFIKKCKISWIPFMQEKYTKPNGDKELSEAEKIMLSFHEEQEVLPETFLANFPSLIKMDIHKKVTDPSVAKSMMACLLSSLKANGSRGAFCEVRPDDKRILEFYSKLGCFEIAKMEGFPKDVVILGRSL
SMILES,Ki (human O-GlcNAcase),"Papp at 3 h, 1 μM [2]",Ki (human O-GlcNAcase; [3]),"EC50 [1, 4]",further results
"CN(C)C1=N[C@@H]2[C@@H](O)[C@H](O)[C@@H]([C@@H](OCc3ccc(OCCF)cc3)C(F)(F)F)O[C@@H]2S1 [Example 55, (3aR,5S,6S,7R,7aR)-2-(dimethylamino)-5-((R)-2,2,2-trifluoro-1-(4-(2-fluoroethoxy)benzyloxy)ethyl)-5,6,7,7a-tetrahydro-3aH-pyrano[3,2-d]thiazole-6,7-diol]",0.65 nM,27.1 ×10⁻⁶ cm/s,–,–,EC50 [1]: 79.5 nM
"CN(C)C1=N[C@@H]2[C@@H](O)[C@H](O)[C@@H]([C@@H](OCc3ccccc3F)C(F)(F)F)O[C@@H]2S1 [Example 61, (3aR,5S,6S,7R,7aR)-2-(dimethylamino)-5-((R)-2,2,2-trifluoro-1-(2-fluorobenzyloxy)ethyl)-5,6,7,7a-tetrahydro-3aH-pyrano[3,2-d]thiazole-6,7-diol]",1.98 nM,29 ×10⁻⁶ cm/s,–,–,EC50 [1]: 7.73 nM
"CN(C)C1=N[C@@H]2[C@@H](O)[C@H](O)[C@@H]([C@@H](OCc3ccccc3)C(F)(F)F)O[C@@H]2S1 [Example 39, (3aR,5S,6S,7R,7aR)-5-((R)-1-(benzyloxy)-2,2,2-trifluoroethyl)-2-(dimethylamino)-5,6,7,7a-tetrahydro-3aH-pyrano[3,2-d]thiazole-6,7-diol]",–,–,2.43 nM,36.2 nM,–
CN(C)C1=N[C@@H]2[C@@H](O)[C@H](O)[C@@H]([C@@H](OCc3ccc(F)cc3)C(F)(F)F)O[C@@H]2S1 [Example 65],–,28.8 ×10⁻⁶ cm/s,1.02 nM,27.7 nM,–
"CN(C)C1=N[C@@H]2[C@@H](O)[C@H](O)[C@@H]([C@@H](N(C)C)C(F)(F)F)O[C@@H]2S1 [Example 17, (3aR,5R,6S,7R,7aR)-2-(dimethylamino)-5-((R)-1-(dimethylamino)-2,2,2-trifluoroethyl)-5,6,7,7a-tetrahydro-3aH-pyrano[3,2-d]thiazole-6,7-diol]",–,31.2 ×10⁻⁶ cm/s,41.9 nM,–,–
"CN(C)C1=N[C@@H]2[C@@H](O)[C@H](O)[C@@H](C(OCc3cccc(F)c3)C(F)(F)F)O[C@@H]2S1 (stereo in doubt) [Example 64, (3aR,5S,6S,7R,7aR)-2-(dimethylamino)-5-((S)-2,2,2-trifluoro-1-(3-fluorobenzyloxy)ethyl)-5,6,7,7a-tetrahydro-3aH-pyrano[3,2-d]thiazole-6,7-diol]",1.32 nM,29.9 ×10⁻⁶ cm/s,–,8.43 nM,–
"CN(C)C1=N[C@@H]2[C@@H](O)[C@H](O)[C@@H]([C@@H](OCc3ccc(Cc4ccccc4)cc3)C(F)(F)F)O[C@@H]2S1 [Example 45, (3aR,5S,6S,7R,7aR)-5-((R)-1-(4-benzylbenzyloxy)-2,2,2-trifluoroethyl)-2-(dimethylamino)-5,6,7,7a-tetrahydro-3aH-pyrano[3,2-d]thiazole-6,7-diol]",1.97 nM,–,–,–,EC50 [1]: 128 nM
"CN(C)C1=N[C@@H]2[C@@H](O)[C@H](O)[C@@H]([C@@](CCc3ccccc3)(OCc3ccccc3)C(F)(F)F)O[C@@H]2S1 [Example 76, (3aR,5S,6S,7R,7aR)-5-((R)-2-(benzyloxy)-1,1,1-trifluoro-4-phenylbutan-2-yl)-2-(dimethylamino)-5,6,7,7a-tetrahydro-3aH-pyrano[3,2-d]thiazole-6,7-diol]",–,–,726 nM,–,–
"CN(C)C1=N[C@@H]2[C@@H](O)[C@H](O)[C@@H]([C@@H](OCc3ccc(CCF)cc3)C(F)(F)F)O[C@@H]2S1 [Example 70, (3aR,5S,6S,7R,7aR)-2-(dimethylamino)-5-((R)-2,2,2-trifluoro-1-(4-(2-fluoroethyl)benzyloxy)ethyl)-5,6,7,7a-tetrahydro-3aH-pyrano[3,2-d]thiazole-6,7-diol]",–,29.5 ×10⁻⁶ cm/s,0.61 nM,17.8 nM,–
"CNC1=N[C@@H]2[C@@H](O)[C@H](O)[C@@H]([C@@H](OCc3ccc(CCF)cc3)C(F)(F)F)O[C@@H]2S1 [Example 87, (3aR,5S,6S,7R,7aR)-2-(methylamino)-5-((R)-2,2,2-trifluoro-1-(4-(2-fluoroethyl)benzyloxy)ethyl)-5,6,7,7a-tetrahydro-3aH-pyrano[3,2-d]thiazole-6,7-diol]",0.71 nM,–,–,–,EC50 [1]: 46.4 nM
"CN(C)C1=N[C@@H]2[C@@H](O)[C@H](O)[C@@H]([C@@H](OCc3ccc(-c4ccccc4)cc3)C(F)(F)F)O[C@@H]2S1 [Example 44, (3aR,5S,6S,7R,7aR)-5-((R)-1-(biphenyl-4-ylmethoxy)-2,2,2-trifluoroethyl)-2-(dimethylamino)-5,6,7,7a-tetrahydro-3aH-pyrano[3,2-d]thiazole-6,7-diol]",3.05 nM,–,–,–,–
"CN(C)C1=N[C@@H]2[C@@H](O)[C@H](O)[C@@H]([C@@H](OCCC3CCCCC3)C(F)(F)F)O[C@@H]2S1 [Example 34, (3aR,5S,6S,7R,7aR)-5-((R)-1-(2-cyclohexylethoxy)-2,2,2-trifluoroethyl)-2-(dimethylamino)-5,6,7,7a-tetrahydro-3aH-pyrano[3,2-d]thiazole-6,7-diol]",–,33.3 ×10⁻⁶ cm/s,2.27 nM,46.4 nM,–
"CNC1=N[C@@H]2[C@H]3OC(C)(C)O[C@@H]3[C@@H](C(OCc3ccc(F)cc3)C(F)(F)F)O[C@@H]2S1 (stereo in doubt) [Example 117, (1R,2R,6R,8S,9S)—N,11,11-trimethyl-8-[(1S)-2,2,2-trifluoro-1-[(4-fluorophenyl)methoxy]ethyl]-7,10,12-trioxa-5-thia-3-azatricyclo[7.3.0.0[2,6]]dodec-3-en-4-amine]",–,–,–,–,KI values for inhibition of O-GlcNAcase (human O-GlcNAcase; units given within the value): does not possess inhibitory activity in the aforementioned range
"CN(C)C1=N[C@@H]2[C@@H](O)[C@H](O)[C@@H]([C@@H](OCc3ccc(CCCF)cc3)C(F)(F)F)O[C@@H]2S1 [Example 71, (3aR,5S,6S,7R,7aR)-2-(dimethylamino)-5-((R)-2,2,2-trifluoro-1-(4-(3-fluoropropyl)benzyloxy)ethyl)-5,6,7,7a-tetrahydro-3aH-pyrano[3,2-d]thiazole-6,7-diol]",–,34.6 ×10⁻⁶ cm/s,0.78 nM,30.8 nM,–
"CN(C)C1=N[C@@H]2[C@@H](O)[C@H](O)[C@@H]([C@@H](OCCCCCF)C(F)(F)F)O[C@@H]2S1 [Example 31, (3aR,5S,6S,7R,7aR)-2-(dimethylamino)-5-((R)-2,2,2-trifluoro-1-(5-fluoropentyloxy)ethyl)-5,6,7,7a-tetrahydro-3aH-pyrano[3,2-d]thiazole-6,7-diol]",–,31.3 ×10⁻⁶ cm/s,4.4 nM,22.3 nM,–
"CNC1=N[C@@H]2[C@@H](O)[C@H](O)[C@@H]([C@@H](OCc3ccc(C)cc3)C(F)(F)F)O[C@@H]2S1 [Example 85, (3aR,5S,6S,7R,7aR)-2-(methylamino)-5-((R)-2,2,2-trifluoro-1-(4-mcthylbenzyloxy)ethyl)-5,6,7,7a-tetrahydro-3aH-pyrano[3,2-d]thiazole-6,7-diol]",–,26.3 ×10⁻⁶ cm/s,3.11 nM,–,–
"COc1ccc(CO[C@H]([C@H]2O[C@@H]3SC(N(C)C)=N[C@@H]3[C@@H](O)[C@@H]2O)C(F)(F)F)cc1 [Example 52, (3aR,5S,6S,7R,7aR)-2-(dimethylamino)-5-((R)-2,2,2-trifluoro-1-(4-methoxybenzyloxy)ethyl)-5,6,7,7a-tetrahydro-3aH-pyrano[3,2-d]thiazole-6,7-diol]",–,30.5 ×10⁻⁶ cm/s,1.38 nM,21.3 nM,–
"CN(C)C1=N[C@@H]2[C@@H](O)[C@H](O)[C@@H]([C@@H](OCc3ccc(C(F)(F)F)cc3)C(F)(F)F)O[C@@H]2S1 [Example 66, (3aR,5S,6S,7R,7aR)-2-(dimethylamino)-5-((R)-2,2,2-trifluoro-1-(4-(trifluoromethyl)benzyloxy)ethyl)-5,6,7,7a-tetrahydro-3aH-pyrano[3,2-d]thiazole-6,7-diol]",2.32 nM,28.2 ×10⁻⁶ cm/s,–,–,EC50 [1]: 13.5 nM
"CNC1=N[C@@H]2[C@@H](O)[C@H](O)[C@@H]([C@](C)(O)C(F)(F)F)O[C@@H]2S1 [Example 158, (3aR,5S,6S,7R,7aR)-2-(methylamino)-5-((S)-1,1,1-trifluoro-2-hydroxypropan-2-yl)-5,6,7,7a-tetrahydro-3aH-pyrano[3,2-d]thiazole-6,7-diol]",–,2.9 ×10⁻⁶ cm/s,–,–,Ki (human O-GlcNAcase; comparative compounds described in PCT/US11/059668): 1.29 nM
"CCCO[C@H]([C@H]1O[C@@H]2SC(NC)=N[C@@H]2[C@@H](O)[C@@H]1O)C(F)(F)F [Example 79, (3aR,5S,6S,7R,7aR)-2-(methylamino)-5-((R)-2,2,2-trifluoro-1-propoxyethyl)-5,6,7,7a-tetrahydro-3aH-pyrano[3,2-d]thiazole-6,7-diol]",–,20.4 ×10⁻⁶ cm/s,3.77 nM,173 nM,–
"CN(C)C1=N[C@@H]2[C@@H](O)[C@H](O)[C@@H]([C@@H](OCc3ccc(Oc4ccccc4)cc3)C(F)(F)F)O[C@@H]2S1 [Example 57, (3aR,5S,6S,7R,7aR)-2-(dimethylamino)-5-((R)-2,2,2-trifluoro-1-(4-phenoxybenzyloxy)ethyl)-5,6,7,7a-tetrahydro-3aH-pyrano[3,2-d]thiazole-6,7-diol]",1.11 nM,16.4 ×10⁻⁶ cm/s,–,–,EC50 [1]: 62.1 nM
"COc1ccc(CO[C@H]([C@H]2O[C@@H]3SC(N(C)C)=N[C@@H]3[C@@H](O)[C@@H]2O)C(F)(F)F)cc1C(F)(F)F [Example 58, (3aR,5S,6S,7R,7aR)-2-(dimethylamino)-5-((R)-2,2,2-trifluoro-1-(4-methoxy-3-(trifluoromethyl)benzyloxy)ethyl)-5,6,7,7a-tetrahydro-3aH-pyrano[3,2-d]thiazole-6,7-diol]",–,26.2 ×10⁻⁶ cm/s,0.84 nM,76.9 nM,–
"CCNC1=N[C@@H]2[C@@H](O)[C@H](O)[C@@H]([C@@H](OCc3ccc(OC)cc3)C(F)(F)F)O[C@@H]2S1 [Example 96, (3aR,5S,6S,7R,7aR)-2-(ethylamino)-5-((R)-2,2,2-trifluoro-1-(4-methoxybenzyloxy)ethyl)-5,6,7,7a-tetrahydro-3aH-pyrano[3,2-d]thiazole-6,7-diol]",–,30.1 ×10⁻⁶ cm/s,12.5 nM,–,–

# Reference: patent US9611275B2 (priority 2012, dated 2017)
